{"source": "patent US20220332750A1", "about": "“ADENOSINE COMPOUND, ITS PHARMACEUTICALLY ACCEPTABLE SALT OR ITS STEREOISOMER AND USE THEREOF” (ACADEMY OF MILITARY MEDICAL SCIENCES, priority 2019, published 2022)", "key": {"[1]": {"target": "T1, (human) A2A adenosine receptor (Homo sapiens, UniProt P29274)", "T1 construct": "purchased PerkinElmer Research Products (Boston, Mass.); host or cells: HEK-293 cell membranes, stably transfected", "T1 sequence (P29274 whole entry)": "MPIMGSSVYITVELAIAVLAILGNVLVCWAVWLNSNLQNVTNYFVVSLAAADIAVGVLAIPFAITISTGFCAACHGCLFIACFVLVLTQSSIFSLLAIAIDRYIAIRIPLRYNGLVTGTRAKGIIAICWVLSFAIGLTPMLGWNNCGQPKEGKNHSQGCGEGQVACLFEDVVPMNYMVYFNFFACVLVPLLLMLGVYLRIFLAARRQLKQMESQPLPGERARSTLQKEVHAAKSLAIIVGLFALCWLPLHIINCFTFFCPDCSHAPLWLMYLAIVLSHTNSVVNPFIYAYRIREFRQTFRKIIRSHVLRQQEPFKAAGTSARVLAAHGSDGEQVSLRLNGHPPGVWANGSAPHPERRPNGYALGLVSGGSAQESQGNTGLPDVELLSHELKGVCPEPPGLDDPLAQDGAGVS", "test": "Radioligand binding test ([3H]-CGS21680 displacement)", "conditions": "for Ki: calculated from IC50 by Cheng-Prusoff equation, [S] 25 nM, Km 22 nM; for IC50: hA2A HEK-293 cell membrane, [3H]-CGS21680 25 nM, 25° C. 90 minutes", "experimental": "[3H]-CGS21680 (2-[p-(2-carboxyethyl)phenylethylamino]-5′-N-ethylcarboxamido-adenosine, [carboxy-1-ethyl-3H(N)]—; 250 μCi): purchased from PerkinElmer Research Products (Boston, Mass.);\nThe cell membrane stably transfected with (human) A2A adenosine receptor was prepared in HEK-293 cells, and the cell membrane was obtained from PerkinElmer Research Products (Boston, Mass.);\nCGS 21680 (2-[p-(2-carboxyethyl)phenylethylamino]-5′-N-ethylcarboxamidoadenosine) was purchased from Selleck (Shanghai, CN);\nThe A2A adenosine receptors used were all expressed in the cell membrane. Each compound was continuously diluted 3 times with DMSO (Solarbio, D8371-250 ml) to generate compound source plates with 10 different concentrations (10 μM, 3.3 μM, 1.1 μM, 0.37 μM, 0.12 μM, 0.0412 μM, 0.0137 μM, 0.0046 μM, 0.0015 μM, 0.0005 μM), 250 nL of compounds were added to 384-well Opti-plate, sealed with parafilm; 1 mL of assay buffer (containing 50 mM Tris-HCl, pH 7.4, 10 mM MgCl2, 1 mM EDTA, 1 μg/mL adenosine deaminase) was added to 20 U hA2A HEK-293 cell membrane for dilution, 0.75 μCi [3H]-CGS21680 (final 25 nM) was added to the diluted cell membrane and mixed well; 50 μL of the prepared cell membrane dilution was transferred to the 384-well Opti-plate containing fresh compounds and incubated at 25° C. for 90 minutes; 100 μL of 0.5% polyethyleneimine solution (PEI) was added to UNIFILTER-96 GF/B filter plate, and soaked at 4° C. for 90 minutes, then the UNIFILTER-96 GF/B filter plate was washed twice with 500 μL of washing buffer per well (washing buffer contained 50 mM Tris-HCl pH 7.4, 154 mM NaCl) which was transferred by Cell Harvester; then, the mixture system in the Opti-plate was transferred to the cleaned UNIFILTER-96 GF/B filter plate, and then the UNIFILTER-96 GF/B filter plate was washed 9 times with 500 μL of washing buffer per well (washing buffer contained 50 mM Tris-HCl, pH 7.4, 154 mM NaCl), and incubated for 3 minutes in a 37° C. incubator; 40 μL of ULTIMA GOLD scintillation fluid (Perkin Elmer, Cat #77-16061) was added to each well, MicroBeta liquid scintillation counter (PerkinElmer) was used to read CPM (count per minute) value. The specific binding percentage of [3H]CGS21680 was calculated according to the CPM value, % specific binding of [3H]CGS21680=(CPMsample−CPMLow Control)/(CPMHigh Control−CPMLow Control)*100, wherein High Control was 0.5% DMSO, Low Control was 100 μM CGS21680. According to the compound concentration and the specific binding percentage of [3H]CGS21680, curve fitting was performed to calculate IC50 value.\nThe binding inhibition constant (Ki) value was calculated from the IC50 value according to the Cheng-Prusoff equation, Ki=IC50/(1+[S]/Km), wherein [S] was radioligand concentration (25 nM), and Km was human A2AAR dissociation constant of [3H]CGS21680 (22 nM)."}, "[2]": {"target": "human adenosine receptor A2A (hADORA2A-HEK293 cells) (Homo sapiens, UniProt P29274)", "sequence (P29274 whole entry)": "as above", "test": "cAMP test of A2A adenosine receptor", "assay_type": "cell-based", "conditions": "LANCE Ultra cAMP kit", "source_text": "DMEM/F12, G418, Penicillin-Streptomycin, Versene solution, HEPES, Hank's buffer saline aqueous solution, PBS (pH 7.4, 1×, sterile), FBS, 7.5% BSA stabilizer, Rolipram, NECA, were purchased from Gibico, Hyclone and Sigma, respectively;\nLANCE® Ultra cAMP kit (containing Eu-cAMP tracer, Ulight-anti-cAMP reagent, cAMP detection buffer) and hADORA2A-HEK293 cells were purchased from PerkinElmer Research Products (Boston, Mass.);\nThe cells stably expressing human adenosine receptor A2A (hADORA2A-HEK293 cells) were cultured in DMEM/F12 medium containing 10% FBS, 1× Penicillin-Streptomycin and 400 μg/ml G418 in the environment of 37° C. and 5% CO2. Before the experiment, the cells were digested with Versene solution. […] EnVison microplate reader (EnVision multimode plate reader, PerkinElmer) was used to determine the level of cyclic adenosine monophosphate in the final solution (λex=320 nm, λem=665 nm & 615 nm). The EC50 (nM) value that stimulated the production level of cyclic adenosine monophosphate when the test compound interacted with the A2A adenosine receptor was calculated. The A2A receptor agonist titer of the compound was expressed as the EC50 (nM) value that stimulated the production level of cyclic adenosine monophosphate when the compound interacted with the A2A adenosine receptor. […]"}}}
{"molecule": "Nc1nc(-c2ccc(NC(=O)NC3CC3)cc2)nc2c1ncn2[C@@H]1O[C@H](CO)[C@@H](O)[C@H]1O", "note": "[Compound 3, 1-{4-{6-amino-9-[(2R,3R,4S,5R)-3,4-dihydroxy-5-(hydroxymethyl)tetrahydrofuran-2-yl]-9H-purin-2-yl}phenyl}-3-cyclopropylurea]", "values": [{"measurement": "Ki", "setting": "[1]", "result": 15.9, "unit": "nM"}, {"measurement": "IC50", "setting": "[1]", "result": 34, "unit": "nM"}, {"measurement": "melting point", "result": 174, "unit": "°C"}]}
{"molecule": "Nc1nc(-c2ccc(NC(=O)Nc3cccnc3)cc2)nc2c1ncn2[C@@H]1O[C@H](CO)[C@@H](O)[C@H]1O", "note": "[Compound 1, 1-{4-{6-amino-9-[(2R,3R,4S,5R)-3,4-dihydroxy-5-(hydroxymethyl)tetrahydrofuran-2-yl]-9H-purin-2-yl}phenyl}-3-(pyridin-3-yl)urea]", "values": [{"measurement": "Ki", "setting": "[1]", "result": 778, "unit": "nM"}, {"measurement": "IC50", "setting": "[1]", "result": 1660, "unit": "nM"}, {"measurement": "melting point", "result": 230, "unit": "°C"}]}
{"molecule": "Nc1nc(-c2ccc(NC(=O)Nc3ccc(CO)cc3)cc2)nc2c1ncn2[C@@H]1O[C@H](CO)[C@@H](O)[C@H]1O", "note": "[Compound 2, 1-{4-{6-amino-9-[(2R,3R,4S,5R)-3,4-dihydroxy-5-(hydroxymethyl)tetrahydrofuran-2-yl]-9H-purin-2-yl}phenyl}-3-[4-(hydroxymethyl)phenyl]urea]", "values": [{"measurement": "Ki", "setting": "[1]", "result": 16.4, "unit": "nM"}, {"measurement": "IC50", "setting": "[1]", "result": 35, "unit": "nM"}, {"measurement": "melting point", "result": 174, "unit": "°C"}, {"measurement": "EC50", "setting": "[2]", "result": 228, "unit": "nM"}]}
